Measurements as given in PMC3268193 (British Journal of Pharmacology, 2012).
Positions count from the first letter of the chain named.

Columns and labels:
[1] = target: T1, P2X1 receptor mutant R139M (Homo sapiens, UniProt P51575, R139M); assay: Two-electrode voltage clamp, P2X1 mutant R139M; type: cell-based
T1 sequence (P51575 1-399 R139M): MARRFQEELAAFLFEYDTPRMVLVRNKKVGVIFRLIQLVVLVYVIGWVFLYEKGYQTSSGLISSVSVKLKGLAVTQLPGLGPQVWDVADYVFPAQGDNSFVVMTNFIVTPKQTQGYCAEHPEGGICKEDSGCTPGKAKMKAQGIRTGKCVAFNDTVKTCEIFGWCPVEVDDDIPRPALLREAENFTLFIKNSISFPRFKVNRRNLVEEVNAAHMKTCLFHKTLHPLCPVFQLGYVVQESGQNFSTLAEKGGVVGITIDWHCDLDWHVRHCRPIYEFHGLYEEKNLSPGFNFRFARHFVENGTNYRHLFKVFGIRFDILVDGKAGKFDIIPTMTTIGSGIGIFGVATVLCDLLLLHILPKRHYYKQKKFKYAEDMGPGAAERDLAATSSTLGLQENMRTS

P2X7 receptor = conditions: ref Fonfria et al., 2008; cited from earlier work
[2] = target: T2, P2X1 receptor mutant K140L (Homo sapiens, UniProt P51575, K140L); assay: Two-electrode voltage clamp, P2X1 mutant K140L; type: cell-based
T2 sequence (P51575 1-399 K140L): T1 sequence (P51575 1-399 R139M) with M139R, K140L

[3] = target: T3, P2X1 receptor mutant KAKRK → EADRK(2) (Homo sapiens, UniProt P51575, K136E/K138D); assay: Two-electrode voltage clamp, P2X1 mutant X1-EADRK; type: cell-based
T3 sequence (P51575 1-399 K136E/K138D): T1 sequence (P51575 1-399 R139M) with K136E, K138D, M139R

[4] = target: T4, P2X1 receptor mutant KAKRK → EADML(4) (Homo sapiens, UniProt P51575, K136E/K138D/K140L/R139M); assay: Two-electrode voltage clamp, P2X1 mutant X1-EADML; type: cell-based
T4 sequence (P51575 1-399 K136E/K138D/R139M/K140L): T1 sequence (P51575 1-399 R139M) with K136E, K138D, K140L

P2X1 Cys2(1-6) chimera = target: T5, P2X1 Cys2(1-6) chimera (Homo sapiens, UniProt P51575, A118P/A137L/A141G/A151Y/D154G/DEL120-123/E128S/F152Y/G124S/G131D/I144L/I161V/INS125RVHNAT/INS150P/K127L/K136E/K138D/K140L/K148R/N153Q/P134A/Q142N/R139M/S130A/T133V/T155P/V156S); assay: Two-electrode voltage clamp, chimera P2X1 Cys2; type: cell-based; conditions: P2X1 Cys2(1–6)
T5 sequence (P51575 with tags, fused parts or gaps A118P/DEL120-123/G124S/INS125RVHNAT/K127L/E128S/S130A/G131D/T133V/P134A/K136E/A137L/K138D/R139M/K140L/A141G/Q142N/I144L/K148R/INS150P/A151Y/F152Y/N153Q/D154G/T155P/V156S/I161V): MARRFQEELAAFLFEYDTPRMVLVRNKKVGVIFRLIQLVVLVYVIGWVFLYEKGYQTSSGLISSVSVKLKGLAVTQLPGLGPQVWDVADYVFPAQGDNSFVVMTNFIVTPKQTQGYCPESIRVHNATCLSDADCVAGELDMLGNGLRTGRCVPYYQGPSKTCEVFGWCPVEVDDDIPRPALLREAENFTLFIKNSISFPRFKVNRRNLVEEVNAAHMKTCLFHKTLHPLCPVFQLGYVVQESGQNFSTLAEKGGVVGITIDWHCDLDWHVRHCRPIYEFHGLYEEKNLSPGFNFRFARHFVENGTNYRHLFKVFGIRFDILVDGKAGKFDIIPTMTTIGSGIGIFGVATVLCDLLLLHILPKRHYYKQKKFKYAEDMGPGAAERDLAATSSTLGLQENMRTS

[5] = target: T6, P2X1 receptor mutant KAKRK → ELDML(5) (Homo sapiens, UniProt P51575, A137L/K136E/K138D/K140L/R139M); assay: Two-electrode voltage clamp, P2X1 mutant X1-ELDML; type: cell-based
T6 sequence (P51575 1-399 K136E/A137L/K138D/R139M/K140L): T1 sequence (P51575 1-399 R139M) with K136E, A137L, K138D, K140L

[6] = 1 nM antagonist, EC90 ATP (10 µM)

Effect of mutation on suramin sensitivity [1]	Effect of mutation on suramin sensitivity [2]	Extra decrease in NF449 sensitivity compared with the K138D mutant [3]	Reduction in NF449 sensitivity compared with WT P2X1 [4]	Reduction of ATP-evoked current [1, 6]	Reduction in NF449 sensitivity compared with P2X1 WT (P2X1 Cys2(1-6) chimera)	Hill slope of NF449 inhibition curve (P2X1 Cys2(1-6) chimera; vs EC90 ATP)	Reduction in NF449 sensitivity compared with WT P2X1 [5]	Reduction of ATP-evoked current [2, 6]	SMILES	Effectiveness at guinea pig compared with rat and human P2X7 isoforms (P2X7 receptor)
no effect	no effect								Cc1ccc(C(=O)Nc2ccc(S(=O)(=O)O)c3cc(S(=O)(=O)O)cc(S(=O)(=O)O)c23)cc1NC(=O)c1cccc(NC(=O)Nc2cccc(C(=O)Nc3cc(C(=O)Nc4ccc(S(=O)(=O)O)c5cc(S(=O)(=O)O)cc(S(=O)(=O)O)c45)ccc3C)c2)c1 [suramin]	~10 fold
		~15 fold	~600 fold	40–70%	~300 fold	1.38 ± 0.07	~700 fold	40–70%	O=C(Nc1cc(C(=O)Nc2ccc(S(=O)(=O)O)cc2S(=O)(=O)O)cc(C(=O)Nc2ccc(S(=O)(=O)O)cc2S(=O)(=O)O)c1)Nc1cc(C(=O)Nc2ccc(S(=O)(=O)O)cc2S(=O)(=O)O)cc(C(=O)Nc2ccc(S(=O)(=O)O)cc2S(=O)(=O)O)c1 [NF449, 4,4′,4′′,4′′′-(carbonylbis(imino-5,1,3-benzenetriyl-bis(carbonylimino)))tetrakis-benzene-1,3-disulphonic acid]	
